Patent US20080039482A1, “SULFONAMIDO-MACROCYCLES AS TIE2 INHIBITORS AND SALTS THEREOF, PHARMACEUTICAL COMPOSITIONS COMPRISING SAME, METHODS OF PREPARING SAME AND USES OF SAME” (priority 2006, published 2008)

What was measured:
[1] = biological target: T1, Tie2 (Homo sapiens, UniProt Q02763); test: Tie2 ELISA assay (assay 1): Ang2-stimulated Tie2 autophosphorylation in transfected CHO cells; type: cell-based; parameters: expressed in transfected cells; host or cells: CHO (DHFR selection); conditions: CHO Tie2/DHFR cells stimulated by angiopoietin-2, pIC50 = -log IC50 in molar concentration, read-out: Tie 2 activity (assay 1)
Procedure: Cellular activity of compounds of the present invention as inhibitors of Tie2 kinase activity was measured employing a Tie2 ELISA assay as described in the following paragraphs. Herein CHO cell-cultures, which are stably transfected by known techniques with Tie2 using DHFR deficiency as selection marker, are stimulated by angiopoietin-2. The specific autophosphorylation of Tie2 receptors is quantified with a sandwich-ELISA using anti-Tie2 antibodies for catch and anti-phosphotyrosine antibodies coupled to HRP for detection.
• 96 well tissue culture plate, sterile, Greiner • 96 well FluoroNunc plate MaxiSorp Surface C, Nunc • 96 well plate polypropylene for compound dilution in DMSO • CHO Tie2/DHFR (transfected cells) • PBS−; PBS++, DMSO • MEM alpha Medium with Glutamax-I without Ribonucleosides and Deoxyribonucleosides (Gibco #32561-029) with 10% FCS after dialysis! and 1% PenStrep • Lysis buffer: 1 Tablet “Complete” protease inhibitor • 1 cap Vanadate (1 mL>40 mg/mL; working solution 2 mM) • ad 50 mL with Duschl-Puffer • pH 7.6 • Anti-Tie2-antibody 1:425 in Coating Buffer pH 9.6 • Stock solution: 1.275 mg/mL>working: 3 μg/mL • PBST: 2 bottles PBS (10×)+10 ml Tween, fill up with VE-water • RotiBlock 1:10 in VE-water • Anti-Phosphotyrosine HRP-Conjugated 1:10000 in 3% TopBlock • 3% TopBlock in PBST • BM Chemiluminescence ELISA Substrate (POD) • solution B 1:100 solution A • SF9 cell culture medium • Ang2-Fc in SF9 cell culture medium Cell Experiment: • Dispense 5×10^4 cells/well/98 μL in 96 well tissue culture plate • Incubate at 37° C./5% CO2 • After 24 h add compounds according to desired concentrations • Add also to control and stimulated values without compounds 2 μL DMSO • And mix for a few min at room temperature • Add 100 μL Ang2-Fc to all wells except control, which receives insect medium • Incubate 20 min at 37° C. • Wash 3× with PBS++ • Add 100 μl Lysis buffer/well and shake a couple of min at room temperature • Store lysates at […] before utilizing for the ELISA Performance of Sandwich-ELISA • Coat 96 well FluoroNunc Plate MaxiSorp Surface C with anti-Tie2 mAb • 1:425 in Coating buffer pH 9.6; 100 μL/well overnight at 4° C. • Wash 2× with PBST • Block plates with 250 μL/well RotiBlock 1:10 in VE-water • Incubate for 2 h at room temperature or overnight at 4° C. shaking • Wash 2× in PBST • Add thawed lysates to wells and incubate overnight shaking at 4° C. • Wash 2× with PBST • Add 100 μL/well anti-Phosphotyrosine HRP-Conjugated 1:10000 in 3% • TopBlock (3% TopBlock in PBST) and incubate overnight under shaking • Wash 6× with PBST • Add 100 μL/well BM Chemiluminescence ELISA Substrate (POD) • solutions 1 und 2 (1:100) • Determine luminescence with the LumiCount. Assay 2: Tie-2-Kinase HTRF-Assay Without Kinase Preactivation
Target sequence in this assay (Q02763 23-1124, species assumed): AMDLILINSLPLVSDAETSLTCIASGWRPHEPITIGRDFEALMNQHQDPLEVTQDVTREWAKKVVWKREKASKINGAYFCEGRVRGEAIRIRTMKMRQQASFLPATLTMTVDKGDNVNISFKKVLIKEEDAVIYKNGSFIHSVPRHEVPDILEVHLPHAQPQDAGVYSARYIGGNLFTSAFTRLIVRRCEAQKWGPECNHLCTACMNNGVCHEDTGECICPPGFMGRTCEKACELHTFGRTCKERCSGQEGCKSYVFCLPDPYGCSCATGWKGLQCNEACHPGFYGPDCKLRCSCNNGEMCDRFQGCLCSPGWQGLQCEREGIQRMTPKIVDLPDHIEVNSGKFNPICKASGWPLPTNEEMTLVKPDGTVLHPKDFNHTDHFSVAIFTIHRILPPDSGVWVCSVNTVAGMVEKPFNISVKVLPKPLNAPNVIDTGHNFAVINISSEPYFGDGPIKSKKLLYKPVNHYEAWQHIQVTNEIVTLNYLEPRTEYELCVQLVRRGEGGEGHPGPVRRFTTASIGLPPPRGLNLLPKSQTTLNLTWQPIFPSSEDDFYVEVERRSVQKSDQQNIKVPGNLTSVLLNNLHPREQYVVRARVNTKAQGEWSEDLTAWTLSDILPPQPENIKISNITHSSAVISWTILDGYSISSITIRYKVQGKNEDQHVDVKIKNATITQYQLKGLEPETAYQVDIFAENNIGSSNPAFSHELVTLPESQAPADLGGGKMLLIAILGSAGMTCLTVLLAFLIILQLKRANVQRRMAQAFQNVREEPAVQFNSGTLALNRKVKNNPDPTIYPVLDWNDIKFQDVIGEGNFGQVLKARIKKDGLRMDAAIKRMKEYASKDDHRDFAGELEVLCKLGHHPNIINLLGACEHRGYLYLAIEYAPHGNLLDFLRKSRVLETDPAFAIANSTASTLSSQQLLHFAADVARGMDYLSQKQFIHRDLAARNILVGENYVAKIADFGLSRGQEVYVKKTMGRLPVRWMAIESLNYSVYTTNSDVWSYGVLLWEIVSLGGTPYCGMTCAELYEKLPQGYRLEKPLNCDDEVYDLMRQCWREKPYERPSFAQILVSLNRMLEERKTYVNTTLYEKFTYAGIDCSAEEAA

[2] = biological target: T1, Tie2; test: Tie-2-Kinase HTRF-Assay without kinase preactivation (assay 2); type: biochemical; parameters: fusion protein of GST and the intracellular domains of Tie-2; GST; made in house; host or cells: insect cells (Hi-5); conditions: 10 μM ATP, pIC50 = -log IC50 in molar concentration
Excerpt: Tie2-inhibitory activity of compounds of the present invention was quantified employing two Tie2 HTRF assay as described in the following paragraphs.
A recombinant fusion protein of GST and the intracellular domains of Tie-2, expressed in insect cells (Hi-5) and purified by Glutathion-Sepharose affinity chromatography was used as kinase. Alternatively, commercially available GST-Tie2-fusion protein (Upstate Biotechnology, Dundee, Scotland) can be used As substrate for the kinase reaction the biotinylated peptide biotin-Ahx-EPKDDAYPLYSDFG (C-terminus in amid form) was used which can be purchased e.g. from the company Biosynthan GmbH (Berlin-Buch, Germany). Detection of phosphorylated product is achieved specifically by a trimeric detection complex consisting of the phosphorylated substrate, streptavidin-XLent (SA-XLent) which binds to biotin, and Europium Cryptate-labeled anti-phosphotyrosine antibody PT66 which binds to phosphorylated tyrosine.
Tie-2 (3.5 ng/measurement point) was incubated for 60 min at 22° C. in the presence of 10 μM adenosine-tri-phosphate (ATP) and 1 μM substrate peptide (biotin-Ahx-EPKDDAYPLYSDFG-NH2) with different concentrations of test compounds (0 μM and concentrations in the range 0.001-20 μM) in 5 μl assay buffer [50 mM Hepes/NaOH pH 7, 10 mM MgCl2, 0.5 mM MnCl2, 1.0 mM dithiothreitol, 0.01% NP40, protease inhibitor mixture (“Complete w/o EDTA” from Roche, 1 tablet per 2.5 ml), 1% (v/v) dimethylsulfoxide]. The reaction was stopped by the addition of 5 μl of an aqueous buffer (25 mM Hepes/NaOH pH 7.5, 0.28% (w/v) bovine serum albumin) containing EDTA (90 mM) and the HTRF (Homogeneous Time Resolved Fluorescence) detection reagents streptavidine-XLent (0.2 μM, from Cis Biointernational, Marcoule, France) and PT66-Eu-Chelate (0.3 ng/μl; a europium-chelate labelled anti-phospho-tyrosine antibody from Perkin Elmer).
The resulting mixture was incubated 1 h at 22° C. to allow the binding of the biotinylated phosphorylated peptide to the streptavidine-XLent and the PT66-Eu-Chelate. Subsequently the amount of phosphorylated substrate peptide was evaluated by measurement of the resonance energy transfer from the PT66-Eu-Chelate to the streptavidine-XLent. Therefore, the fluorescence emissions at 620 nm and 665 nm after excitation at 350 nm was measured in a HTRF reader, e.g. a Rubystar (BMG Labtechnologies, Offenburg, Germany) or a Viewlux (Perkin-Elmer). The ratio of the emissions at 665 nm and at […] was taken as the measure for the amount of phosphorylated substrate peptide. The data were normalised (enzyme reaction without inhibitor=0% inhibition, all other assay components but no enzyme=100% inhibition) and IC50 values were calculated by a 4 parameter fit using an inhouse software.
Target sequence in this assay (Q02763 770-1124 limits assumed, species assumed): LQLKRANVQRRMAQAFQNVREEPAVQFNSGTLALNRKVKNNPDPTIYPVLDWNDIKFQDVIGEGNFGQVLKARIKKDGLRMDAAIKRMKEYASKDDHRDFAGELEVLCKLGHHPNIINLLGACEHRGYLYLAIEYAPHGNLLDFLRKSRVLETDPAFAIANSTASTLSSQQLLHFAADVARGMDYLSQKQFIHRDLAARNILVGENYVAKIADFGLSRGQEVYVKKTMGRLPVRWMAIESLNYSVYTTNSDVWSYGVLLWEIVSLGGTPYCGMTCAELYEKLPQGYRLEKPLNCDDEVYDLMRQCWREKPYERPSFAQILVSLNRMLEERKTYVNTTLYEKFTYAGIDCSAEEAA

Row | Structure (SMILES) | IC50 [1] | IC50 [2]
1 | Cc1ccc(C2(C(=O)Nc3ccc(-c4cnc5nc4NCCCNS(=O)(=O)c4cccc(c4)N5)cc3)CC2)cc1 [Example 1, 1-p-Tolyl-cyclopropane-carboxylic acid [4-(13,13-dioxo-13λ^6-thia-2,4,8,12,19-pentaaza-tricyclo[12.3.1.1^3,7]nonadeca-1(18),3(19),4,6, 14,16-hexaen-6-yl)-phenyl]-amide] | < 100 nM | < 100 nM
2 | Cc1ccccc1C1(C(=O)Nc2ccc(-c3cnc4nc3NCCCNS(=O)(=O)c3cccc(c3)N4)cc2)CC1 [Example 2, 1-o-Tolyl-cyclopropane-arboxylic acid [4-(13,13-dioxo-13λ^6-thia-2,4,8,12,19-pentaaza-tricyclo[12.3.1.1^3,7]nonadeca-1(18),3(19),4,6,14,16-hexaen-6-yl)-phenyl]-amide] | < 100 nM | < 100 nM
3 | COc1ccc(C2(C(=O)Nc3ccc(-c4cnc5nc4NCCCNS(=O)(=O)c4cccc(c4)N5)cc3)CC2)cc1 [Example 4, 1-(4-Methoxy-phenyl)-cyclopropane-carboxylic acid [4-(13,13-dioxo-13λ^6-thia-2,4,8,12,19-pentaaza-tricyclo[12.3.1.1^3,7]-nonadeca-1(18),3(19),4,6,14,16-hexaen-6-yl)-phenyl]-amide] | < 100 nM | < 100 nM
4 | O=C(Nc1ccc(-c2cnc3nc2NCCCNS(=O)(=O)c2cccc(c2)N3)cc1)C1(c2ccccc2F)CC1 [Example 7, 1-(2-Fluoro-phenyl)-cyclopropane-carboxylic acid [4-(13,13-dioxo-13λ^6-thia-2,4,8,12,19-pentaaza-tricyclo[12.3.1.1^3,7]nonadeca-1(18),3(19),4,6,14,16-hexaen-6-yl)-phenyl]-amide] | < 100 nM | < 100 nM
5 | COc1cccc(C2(C(=O)Nc3ccc(-c4cnc5nc4NCCCNS(=O)(=O)c4cccc(c4)N5)cc3)CC2)c1 [Example 3, 1-(3-Methoxy-phenyl)-cyclopropane-carboxylic acid [4-(13,13-dioxo-13λ^6-thia-2,4,8,12,19-pentaaza-tricyclo[12.3.1.1^3,7]nonadeca-1(18),3(19),4,6,14,16-hexaen-6-yl)-phenyl]-amide] | < 100 nM | < 100 nM
6 | O=C(Nc1ccc(-c2cnc3nc2NCCCNS(=O)(=O)c2cccc(c2)N3)cc1)C1(c2ccc(Cl)cc2)CC1 [Example 6, 1-(4-Chloro-phenyl)-cyclopropane-carboxylic acid [4-(13,13-dioxo-13λ^6-thia-2,4,8,12,19-pentaaza-tricyclo[12.3.1.1^3,7]-nonadeca-1(18),3(19),4,6,14,16-hexaen-6-yl)-phenyl]-amide] | < 100 nM | < 100 nM
7 | O=C(Nc1ccc(-c2cnc3nc2NCCCNS(=O)(=O)c2cccc(c2)N3)cc1)C1(c2cccc(Cl)c2)CC1 [Example 5, 1-(3-Chloro-phenyl)-cyclopropane-arboxylic acid [4-(13,13-dioxo-13λ^6-thia-2,4,8,12,19-pentaaza-tricyclo[12.3.1.1^3,7]-nadeca-1(18),3(19),4,6,14,16-hexaen-6-yl)-phenyl]-amide] | < 100 nM | < 100 nM
8 | CC(C)(C(=O)Nc1ccc(-c2cnc3nc2NCCCNS(=O)(=O)c2cccc(c2)N3)cc1)c1ccc(Cl)cc1 [Example 13, 2-(4-Chloro-phenyl)-N-[4-(13,13-dioxo-13λ^6-thia-2,4,8,12,19-pentaaza-tricyclo[12.3.1.1^3,7]-nonadeca-1(18),3(19),4,6,14,16-hexaen-6-yl)-phenyl]-isobutyramide] | 100 to 1000 nM | < 100 nM
9 | O=C(Nc1ccc(-c2cnc3nc2NCCCNS(=O)(=O)c2cccc(c2)N3)cc1)C1(c2ccc(F)cc2)CC1 [Example 9, 1-(4-Fluoro-phenyl)-cyclopropane-carboxylic acid [4-(13,13-dioxo-13λ^6-thia-2,4,8,12,19-pentaaza-tricyclo[12.3.1.1^3.7]nonadeca-1(18),3(19),4,6,14,16-hexaen-6-yl)-phenyl]-amide] | < 100 nM | < 100 nM
10 | O=C(Nc1ccc(-c2cnc3nc2NCCCNS(=O)(=O)c2cccc(c2)N3)cc1)C1(c2cccc(F)c2)CC1 [Example 8, 1-(3-Fluoro-phenyl)-cyclopropane-carboxylic acid [4-(13,13-dioxo-13λ^6-thia-2,4,8,12,19-pentaaza-tricyclo[12.3.1.1^3,7]nonadeca-1(18),3(19),4,6,14,16-hexaen-6-yl)-phenyl]-amide] | < 100 nM | < 100 nM
11 | O=C(Nc1ccc(-c2cnc3nc2NCCCNS(=O)(=O)c2cccc(c2)N3)cc1)C1(c2cc(C(F)(F)F)ccc2F)CC1 [Example 12, 1-(2-Fluoro-5-trifluoromethyl-phenyl)-cyclopropane-carboxylic acid [4-(13,13-dioxo-13λ^6-thia-2,4,8,12,19-pentaaza-tricyclo[12.3.1.1^3,7]-nonadeca-1(18),3(19),4,6,14,16-hexaen-6-yl)-phenyl]-amide] | < 100 nM | < 100 nM
12 | O=C(Nc1ccc(-c2cnc3nc2NCCCNS(=O)(=O)c2cccc(c2)N3)cc1)C1(c2cccc(C(F)(F)F)c2)CC1 [Example 10, 1-(3-Trifluoromethyl-phenyl)-cyclopropane-carboxylic acid [4-(13,13-dioxo-13λ^6-thia-2,4,8,12,19-pentaaza-tricyclo[12.3.1.1^3,7]nonadeca-1(18),3(19),4,6,14,16-hexaen-6-yl)-phenyl]-amide] | < 100 nM | 100 to 1000 nM
13 | O=C(Nc1ccc(-c2cnc3nc2NCCCNS(=O)(=O)c2cccc(c2)N3)cc1)C1(c2ccc(C(F)(F)F)cc2)CC1 [Example 11, 1-(4-Trifluoromethyl-phenyl)-cyclopropane-carboxylic acid [4-(13,13-dioxo-13λ^6-thia-2,4,8,12,19-pentaaza-tricyclo[12.3.1.1^3,7]nonadeca-1(18),3(19),4,6,14,16-hexaen-6-yl)-phenyl]-amide] | < 100 nM | < 100 nM
